Columns and labels:
Type in all cases: cell-based
[1] = system: isolated rat soleus muscles; assay: Recovery of nerve-stimulated force in isolated rat soleus muscles exposed to sub-maximal tubocurarine; conditions: 9-AC added after tubocurarine; nerve stimulation by suction electrode, 60 Hz
Experimental: (§1) Experiments were performed using rat soleus muscles from either young (4-wk-old) or adult Wistar rats (12-14-week-old). Animal handling, killing and isolation of muscle is described elsewhere All experiments were performed using normal Krebs-Ringer bicarbonate solution (NKR). In solutions with elevated Mg^2+, MgCl2 was added to NKR-solution causing minor increases in osmolarity and ionic strength. In solutions with elevated K^+, 4 mM NaCl was replaced by 4 mM KCl in the NKR.
In all contraction experiments, isometric force production was determined and force produced during contractions was quantified by measuring the integral of the force response (AUC). Stimulation and force recordings have been described elsewhere. […] In these latter experiments, extracellular recordings of action potentials (M-waves) could be measured without temporal overlap with stimulation artefacts.
(§2) The aim was to find compounds that by inhibition of CIC-1 channels can recover nerve-stimulated force under conditions of fatigue including conditions where fatigue is caused by compromised neuromuscular transmission. Neuromuscular transmission dysfunction can develop because of both pre- and/or post-synaptic complications in connection with a disorder or as part of neuromuscular blockade during/after surgery. In the initial series of drug testing, experiments were performed with isolated muscles in the presence of sub-maximal ACh receptor antagonist tubocurarine. Since the inclusion of tubocurarine caused a partial loss of neuromuscular transmission this experiment mimics the conditions in myasthenia gravis and neuromuscular blockade. To mimic conditions with pre-synaptic complication (Lambert Eaton syndrome, motor neuron disorder, polyneuropathy) the intact nerve-muscle preparations were incubated at elevated extracellular Mg^2+, which is known to suppress release of ACh from nerve terminals of motor neurons.
The experiments also illustrate that field stimulation of the entire nerve-muscle preparation selectively activates the motor nerve when short-duration pulses (0.02 vs 0.2 ms) were used. In FIG. 1A the preparation was stimulated either via field stimulation or via nerve-stimulation using a suction electrode. With the suction electrode only the nerve could be stimulated. When exposed to a submaximal concentration of the ACh receptor antagonist tubocurarine (0.2 μM) a clear drop in peak force and a further decline (or fade) in force during the stimulation developed. This drop in force clearly reflected compromised neuromuscular transmission, as the decline in peak force and fading were not seen with direct stimulation of the muscle. […] Thus, loss of M-wave and force with tubocurarine reflected partial blockade of neuromuscular function. Such fading of force and M-waves during stimulation represent clinical hallmarks of both myasthenia gravis and neuromuscular blockade in connection with surgery. In FIG. 1B, observations with normal (0.2 ms) and short-duration (0.02 ms) pulses have been compared. It can be seen that only with short-duration pulses did tubocurarine cause a decline in peak force and fading (FIG. 1B). This confirms that short-duration pulses in field stimulation could be used as specific nerve-stimulation. […] Elevated extracellular Mg^2+ could thus be used to partially block neuromuscular transmission and thus be used as a model of conditions with compromised pre-synaptic function (Lambert Eaton syndrome, amyotrophic lateral sclerosis, spinal muscular atrophy). […]

[2] = system: isolated rat soleus muscles; assay: Recovery of nerve-stimulated force in isolated rat soleus muscles exposed to 3.5 mM Mg2+; conditions: 9-AC added at 3.5 mM Mg2+; nerve stimulation by suction electrode, 60 Hz
Experimental: as §1
as §2, with “Since the inclusion of tubocurarine caused a partial loss of neuromuscular transmission this experiment mimics the conditions in myasthenia gravis and neuromuscular blockade.” left out

[3] = system: isolated rat muscle; assay: Measurement of force in an in vitro model: isolated rat soleus nerve-muscle preparation, 115 nM tubocurarine; conditions: 50 μM compound after 90 min in tubocurarine
Experimental: FIGS. 12A-12B. […] Force traces from a representative muscle stimulated to contract in 1) control condition before addition of neuromuscular blocking agent, 2) the force response to stimulation after 90 minutes incubation with Tubocurarine. […] The traces presented in FIG. 12A (1, 2, 3), correspond to the dotted lines in FIG. 12B, respectively.
Recovery of force is quantified as the percentage of the force prior to tubocurarine that is recovered by the compound.
The current invention relates to compounds that inhibit CIC-1 ion channels and increase muscle excitability and thereby improve muscle function in clinical conditions where muscle activation is failing. Such conditions result in loss of contractile function of skeletal muscle, weakness and excessive fatigue. […]
Experimentally, soleus muscles from 4-5 wk old rats were isolated with the motor nerve remaining attached. […] Stimulation of the motor nerve led to activation of the muscle fibres and ensuing force production that was recorded.
After mounting the nerve-muscle preparation in the experimental setup, the contractile function of the muscle was initially assessed under the control conditions (FIG. 2A). […] To quantify the ability of the compound to restore force the percentage of the initial force that was restored was determined after 40 mins of compound exposure (FIG. 2B) and the point increase is reported in Table 8.

Row | SMILES | recovery of force and M-wave signal [1] | recovery of force and M-wave signal [2] | recovery of force (in words) [3]
1 | O=C(O)c1c2ccccc2cc2ccccc12 [Compound 9-AC, 9-anthracenecarboxylic acid, reference compound] | marked recovery of both force and M-wave signal | marked recovery of both force and M-wave signal | 
2 | O=C(O)[C@H](CF)Oc1ccc(Br)cc1F [Compound A-19, (2R)-2-(4-bromo-2-fluorophenoxy)-3-fluoropropanoic acid] |  |  | subsequently recovered
